Assays:
human Kv1.5 = target: T1, human Kv1.5 (Homo sapiens, UniProt P22460); assay: Kv1.5 Rb+ Efflux Assay; type: cell-based; conditions: inhibition of 86Rb+ efflux through Kv1.5; cells stably transfected with human Kv1.5; 10 point concentration response curves n=2; normalised to 2.5mM 4 amino-pyridine block
T1 construct: expressed in transfected cells
Outline: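 Cells stably expressing human Kv1.5 loaded with ⁸⁶Rb⁺ ≥3 h, preincubated 10 min at room temperature with compound, then depolarised with high-KCl (145mM) buffer for 10 min; effluxed ⁸⁶Rb⁺ counted by Cerenkov emission (alternatively ⁸⁵Rb⁺ by atomic absorption). Inhibition normalised to 2.5mM 4-aminopyridine block; IC50 from 10-point curves, n=2, variable-slope sigmoidal fit.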

hKv1.5 = hKv1.5 (Homo sapiens, UniProt P22460); assay: Kv1.5 Autopatch Electrophysiology (whole cell patch-clamp); type: cell-based; conditions: compound at 1µM, room temperature (22-24°C), held at -80mV, step to 0mV for 1000ms, total charge measured
Outline: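 Whole-cell automated patch-clamp at 22-24°C, compounds tested at 1µM in external bather (KCl/K-gluconate, pH 7.4; KCl/EGTA pipette). Cells held at -80mV and stepped to 0mV for 1000ms every 5s; only cells with IK > 500 pA and Rseries ≤18 MΩ used. Read-out: total charge over the whole step.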

hKv1.5, sequence (P22460 whole entry): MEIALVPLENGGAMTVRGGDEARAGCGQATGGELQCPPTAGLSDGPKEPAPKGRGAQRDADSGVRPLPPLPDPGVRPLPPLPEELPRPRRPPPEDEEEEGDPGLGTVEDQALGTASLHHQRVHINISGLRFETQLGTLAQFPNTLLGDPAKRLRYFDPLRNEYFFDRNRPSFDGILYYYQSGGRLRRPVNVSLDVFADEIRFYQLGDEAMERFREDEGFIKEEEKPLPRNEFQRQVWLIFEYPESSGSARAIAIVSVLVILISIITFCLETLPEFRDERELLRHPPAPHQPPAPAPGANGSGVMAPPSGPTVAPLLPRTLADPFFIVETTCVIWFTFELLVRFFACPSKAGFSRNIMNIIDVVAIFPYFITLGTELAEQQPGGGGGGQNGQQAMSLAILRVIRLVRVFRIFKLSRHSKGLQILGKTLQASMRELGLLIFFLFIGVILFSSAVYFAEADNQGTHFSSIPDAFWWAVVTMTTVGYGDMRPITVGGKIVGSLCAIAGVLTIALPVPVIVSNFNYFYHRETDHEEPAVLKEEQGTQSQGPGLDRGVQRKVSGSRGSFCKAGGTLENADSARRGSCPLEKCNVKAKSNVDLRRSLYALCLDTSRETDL
T1 sequence (P22460 whole entry): as above

IC50 (human Kv1.5)	inhibition at 1 µM (hKv1.5)	SMILES
150 nM	98%	c1ccc(-c2csc3nc(N4CCOCC4)nc(NCc4ccccn4)c23)cc1 [Example 197, (2-Morpholin-4-yl-5-phenyl-thieno[2,3-d]pyrimidin-4-yl)-pyridin-2-ylmethyl-amine]
6610 nM	99.5%	N#Cc1nc(NCc2ccccn2)c2c(-c3ccccc3)csc2n1 [Example 199, 5-Phenyl-4-[(pyridin-2-ylmethyl)-amino]-thieno[2,3-d]pyrimidine-2-carbonitrile]
71800 nM	99.3%	CN(C)c1nc(NCc2ccccn2)c2c(-c3ccc(F)cc3)csc2n1 [Example 200, 5-(4-Fluorophenyl)-N^2,N^2-dimethyl-N^4-pyridin-2-ylmethyl-thieno[2,3-d]pyrimidine-2,4-diamine]
15900 nM	98.2%	COC(=O)C1CCN(c2nc(NCc3ccccn3)c3c(-c4ccc(F)cc4)csc3n2)CC1 [Example 201, 1-{5-(4-Fluorophenyl)-4-[(pyridin-2-ylmethyl)-amino]-thieno[2,3-d]pyrimidin-2-yl}-piperidine-4-carboxylic acid methyl ester]
2700 nM	98%	CCOC(=O)CCNc1nc(NCc2ccccn2)c2c(-c3ccccc3)csc2n1 [Example 202, 3-{5-Phenyl-4-[(pyridin-2-ylmethyl)-amino]-thieno[2,3-d]pyrimidin-2-ylamino}-propionic acid ethyl ester]
480 nM	98%	COCCOc1nc(NCc2ccccn2)c2c(-c3ccccc3)csc2n1 [Example 203, [2-(2-Methoxy-ethoxy)-5-phenyl-thieno[2,3-d]pyrimidin-4-yl]-pyridin-2-ylmethyl-amine]
4700 nM	97.9%	CNc1nc(NCc2ccccn2)c2c(-c3ccc(F)cc3)csc2n1 [Example 204, 5-(4-Fluorophenyl)-N^2-methyl-N^4-pyridin-2-ylmethyl-thieno[2,3-d]pyrimidine-2,4-diamine]
11900 nM	97.5%	Nc1nc(NCc2ccccn2)c2c(-c3ccc(F)cc3)csc2n1 [Example 205, 5-(4-Fluorophenyl)-N^4-pyridin-2-ylmethyl-thieno[2,3-d]pyrimidine-2,4-diamine]
3410 nM	97.5%	OCCC1CCN(c2nc(NCc3ccccn3)c3c(-c4ccccc4)csc3n2)CC1 [Example 206, 2-(1-{5-Phenyl-4-[(pyridin-2-ylmethyl)-amino]-thieno[2,3-d]pyrimidin-2-yl}-piperidin-4-yl)-ethanol]
42500 nM	97.2%	Fc1ccc(-c2csc3nc(N4CCOCC4)nc(NCc4ccccn4)c23)cc1 [Example 207, [5-(4-Fluorophenyl)-2-morpholin-4-yl-thieno[2,3-d]pyrimidin-4-yl]-pyridin-2-ylmethyl-amine]
330 nM	96.6%	OCCN(CCO)c1nc(NCc2ccccn2)c2c(-c3ccccc3)csc2n1 [Example 208, 2-((2-Hydroxy-ethyl)-{5-phenyl-4-[(pyridin-2-ylmethyl)-amino]-thieno[2,3-d]pyrimidin-2-yl}-amino)-ethanol]
1830 nM	96%	COCCNc1nc(NCc2ccccn2)c2c(-c3ccc(F)cc3)csc2n1 [Example 209, 5-(4-Fluorophenyl)-N^2-(2-methoxy-ethyl)-N^4-pyridin-2-ylmethyl-thieno[2,3-d]pyrimidine-2,4-diamine]
740 nM	95.6%	OCC(CO)Nc1nc(NCc2ccccn2)c2c(-c3ccccc3)csc2n1 [Example 210, 2-{5-Phenyl-4-[(pyridin-2-ylmethyl)-amino]-thieno[2,3-d]pyrimidin-2-ylamino}-propane-1,3-diol]
5370 nM	89%	CN(C)CCOc1nc(NCc2ccccn2)c2c(-c3ccccc3)csc2n1 [Example 211, [2-(2-Dimethylamino-ethoxy)-5-phenyl-thieno[2,3-d]pyrimidin-4-yl]-pyridin-2-ylmethyl-amine]
7630 nM	87%	OCCNc1nc(NCc2ccccn2)c2c(-c3ccc(F)cc3)csc2n1 [Example 212, 2-{5-(4-Fluorophenyl)-4-[(pyridin-2-ylmethyl)-amino]-thieno[2,3-d]pyrimidin-2-ylamino}-ethanol]
540 nM	95%	CCOC(=O)Cc1nc(NCc2ccccn2)c2c(-c3ccccc3)csc2n1 [Example 237, {5-Phenyl-4-[(pyridin-2-ylmethyl)amino]thieno[2,3-d]pyrimidin-2-yl} acetic acid ethyl ester]

IC50 (human Kv1.5)	inhibition at 1 µM (hKv1.5)	SMILES
3330 nM	96%	CCOC(=O)Cc1nc(NCc2ccco2)c2c(-c3ccccc3)csc2n1 [Example 238, {4-[(Furan-2-ylmethyl)-amino]-5-phenyl-thieno[2,3-d]pyrimidin-2-yl}-acetic acid ethyl ester]
330 nM	98%	OCCc1nc(NCc2ccccn2)c2c(-c3ccccc3)csc2n1 [Example 250, 2-{5-Phenyl-4-[(pyridin-2-ylmethyl)amino]thieno[2,3-d]pyrimidin-2-yl}ethanol]
80 nM	98%	OCCc1nc(NCc2ccco2)c2c(-c3ccccc3)csc2n1 [Example 251, 2-{4-[(Furan-2-ylmethyl)-amino]-5-phenyl-thieno[2,3-d]pyrimidin-2-yl}-ethanol]
1530 nM	93%	OCC(CO)c1nc(NCc2ccccn2)c2c(-c3ccccc3)csc2n1 [Example 275, 2-{5-Phenyl-4-[(pyridin-2-ylmethyl)-amino]-thieno[2,3-d]pyrimidin-2-yl}-propane-1,3-diol]
2900 nM	98.3%	FC(F)(F)c1ccc(-c2csc3ncnc(NCc4ccccn4)c23)cc1 [Example 313, Pyridin-2-ylmethyl-[5-(4-trifluoromethyl-phenyl)-thieno[2,3-d]pyrimidin-4-yl]-amine]
10 nM	97.3%	c1ccc(CNc2ncnc3scc(-c4ccc5c(c4)OCO5)c23)nc1 [Example 314, (5-Benzo[1,3]dioxol-5-yl-thieno[2,3-d]pyrimidin-4-yl)-pyridin-2-ylmethyl-amine]
370 nM	97%	c1ccc(CNc2ncnc3scc(-c4ccc5c(c4)OCCO5)c23)nc1 [Example 320, [5-(2,3-Dihydro-benzo[1,4]dioxin-6-yl)-thieno[2,3-d]pyrimidin-4-yl]-pyridin-2-ylmethyl-amine]
1520 nM	95%	Clc1cccc(-c2csc3ncnc(NCc4ccccn4)c23)c1 [Example 321, [5-(3-Chlorophenyl)-thieno[2,3-d]pyrimidin-4-yl]-pyridin-2-ylmethyl-amine]
260 nM	94%	COc1cccc(-c2csc3ncnc(NCc4ccccn4)c23)c1 [Example 322, [5-(3-Methoxyphenyl)-thieno[2,3-d]pyrimidin-4-yl]-pyridin-2-ylmethyl-amine]
40 nM	94%	c1ccc(CNc2ncnc3scc(-c4ccc5cc[nH]c5c4)c23)nc1 [Example 323, [5-(1H-Indol-6-yl)-thieno[2,3-d]pyrimidin-4-yl]-pyridin-2-ylmethyl-amine]
2540 nM	90.8%	Clc1ccc(-c2csc3ncnc(NCc4ccccn4)c23)cc1 [Example 325, [5-(4-Chlorophenyl)-thieno[2,3-d]pyrimidin-4-yl]-pyridin-2-ylmethyl-amine]
10400 nM	89%	FC1(F)Oc2ccc(-c3csc4ncnc(NCc5ccccn5)c34)cc2O1 [Example 326, [5-(2,2-Difluoro-benzo[1,3]dioxol-5-yl)-thieno[2,3-d]pyrimidin-4-yl]-pyridin-2-ylmethyl-amine]
30 nM	76%	Fc1cccc(-c2csc3ncnc(NCc4ccccn4)c23)c1 [Example 331, [5-(3-Fluorophenyl)-thieno[2,3-d]pyrimidin-4-yl]-pyridin-2-ylmethyl-amine]
47400 nM	73%	c1ccc(CNc2ncnc3scc(-c4ccc(N5CCOCC5)cc4)c23)nc1 [Example 332, [5-(4-Morpholin-4-yl-phenyl)-thieno[2,3-d]pyrimidin-4-yl]-pyridin-2-ylmethyl-amine]
10400 nM	63%	Fc1ccc(-c2csc3ncnc(NCc4ccccn4)c23)cc1F [Example 333, [5-(3,4-Difluoro-phenyl)-thieno[2,3-d]pyrimidin-4-yl]-pyridin-2-ylmethyl-amine]
